In PubChem BioAssay (NCI):
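A five-concentration, 48-hour dose response in 96-well plates underlies each endpoint, interpolated linearly between surrounding concentrations. GI50 is the concentration that inhibits growth by half. TGI is the concentration that stops growth completely.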

Assays:
Experiment in all cases: growth of human tumour cells (NCI), 48 h
786-0 renal = test system: 786-0 renal
A498 renal = test system: A498 renal
A549 NSCLC = test system: A549 NSCLC
ACHN renal = test system: ACHN renal
BT-549 breast = test system: BT-549 breast
CAKI-1 renal = test system: CAKI-1 renal
CCRF-CEM leukemia = test system: CCRF-CEM leukemia
COLO 205 colon = test system: COLO 205 colon
DU-145 prostate = test system: DU-145 prostate
EKVX NSCLC = test system: EKVX NSCLC
HCC-2998 colon = test system: HCC-2998 colon
HCT-116 colon = test system: HCT-116 colon
HCT-15 colon = test system: HCT-15 colon
HL-60(TB) leukemia = test system: HL-60(TB) leukemia
HOP-62 NSCLC = test system: HOP-62 NSCLC
HOP-92 NSCLC = test system: HOP-92 NSCLC
HS 578T breast = test system: HS 578T breast
HT29 colon = test system: HT29 colon
IGROV1 ovarian = test system: IGROV1 ovarian
K-562 leukemia = test system: K-562 leukemia
KM12 colon = test system: KM12 colon
LOX IMVI melanoma = test system: LOX IMVI melanoma
M14 melanoma = test system: M14 melanoma
MALME-3M melanoma = test system: MALME-3M melanoma
MCF7 breast = test system: MCF7 breast
MDA-MB-231 breast = test system: MDA-MB-231 breast
MDA-MB-435 = test system: MDA-MB-435
MOLT-4 leukemia = test system: MOLT-4 leukemia
NCI-H226 lung = test system: NCI-H226 lung
NCI-H460 lung = test system: NCI-H460 lung
NCI-H522 lung = test system: NCI-H522 lung
NCI/ADR-RES ovarian = test system: NCI/ADR-RES ovarian
OVCAR-3 ovarian = test system: OVCAR-3 ovarian
OVCAR-4 ovarian = test system: OVCAR-4 ovarian
OVCAR-5 ovarian = test system: OVCAR-5 ovarian
OVCAR-8 ovarian = test system: OVCAR-8 ovarian
PC-3 prostate = test system: PC-3 prostate
RPMI-8226 leukemia = test system: RPMI-8226 leukemia
RXF 393 renal = test system: RXF 393 renal
SF-268 CNS = test system: SF-268 CNS
SF-295 CNS = test system: SF-295 CNS
SF-539 CNS = test system: SF-539 CNS
SK-MEL-2 melanoma = test system: SK-MEL-2 melanoma
SK-MEL-28 melanoma = test system: SK-MEL-28 melanoma
SK-MEL-5 melanoma = test system: SK-MEL-5 melanoma
SK-OV-3 ovarian = test system: SK-OV-3 ovarian
SN12C renal = test system: SN12C renal
SNB-19 CNS = test system: SNB-19 CNS
SNB-75 CNS = test system: SNB-75 CNS
SR leukemia = test system: SR leukemia
SW-620 colon = test system: SW-620 colon
T-47D breast = test system: T-47D breast
TK-10 renal = test system: TK-10 renal
U251 CNS = test system: U251 CNS
UACC-257 melanoma = test system: UACC-257 melanoma
UACC-62 melanoma = test system: UACC-62 melanoma
UO-31 renal = test system: UO-31 renal

CC[C@@H](CO)Nc1ccc2ncc(C#Cc3cncc(C(=O)Nc4ccc(CN5CCN(C)CC5)c(C(F)(F)F)c4)c3)n2n1
GI50 (786-0 renal): 282 nM | TGI (786-0 renal): 986 nM | GI50 (A498 renal): 1060 nM | TGI (A498 renal): 1920 nM | GI50 (A549 NSCLC): 199 nM | TGI (A549 NSCLC): 768 nM | GI50 (ACHN renal): 363 nM | TGI (ACHN renal): 1180 nM | GI50 (BT-549 breast): 614 nM | TGI (BT-549 breast): 1350 nM | GI50 (CAKI-1 renal): 142 nM | TGI (CAKI-1 renal): 458 nM | GI50 (CCRF-CEM leukemia): 26.4 nM | TGI (CCRF-CEM leukemia): 1310 nM | GI50 (COLO 205 colon): 89.2 nM | TGI (COLO 205 colon): 196 nM | GI50 (DU-145 prostate): 144 nM | TGI (DU-145 prostate): 543 nM | GI50 (EKVX NSCLC): 142 nM | TGI (EKVX NSCLC): 1050 nM | GI50 (HCC-2998 colon): 238 nM | TGI (HCC-2998 colon): 858 nM | GI50 (HCT-116 colon): 66.1 nM | TGI (HCT-116 colon): 355 nM | GI50 (HCT-15 colon): 583 nM | TGI (HCT-15 colon): 1700 nM | GI50 (HL-60(TB) leukemia): 104 nM | TGI (HL-60(TB) leukemia): 462 nM | GI50 (HOP-62 NSCLC): 178 nM | TGI (HOP-62 NSCLC): 909 nM | GI50 (HOP-92 NSCLC): 67 nM | TGI (HOP-92 NSCLC): 261 nM | GI50 (HS 578T breast): 59.8 nM | TGI (HS 578T breast): 451 nM | GI50 (HT29 colon): 157 nM | TGI (HT29 colon): 655 nM | GI50 (IGROV1 ovarian): 77 nM | TGI (IGROV1 ovarian): 365 nM | GI50 (K-562 leukemia): 5 nM | TGI (K-562 leukemia): 1640 nM | GI50 (KM12 colon): 9.27 nM | TGI (KM12 colon): 793 nM | GI50 (LOX IMVI melanoma): 63.4 nM | TGI (LOX IMVI melanoma): 258 nM | GI50 (M14 melanoma): 118 nM | TGI (M14 melanoma): 360 nM | GI50 (MALME-3M melanoma): 125 nM | TGI (MALME-3M melanoma): 544 nM | GI50 (MCF7 breast): 46.9 nM | TGI (MCF7 breast): 409 nM | GI50 (MDA-MB-231 breast): 48.2 nM | TGI (MDA-MB-231 breast): 500 nM | GI50 (MDA-MB-435): 104 nM | TGI (MDA-MB-435): 634 nM | GI50 (MOLT-4 leukemia): 43.8 nM | TGI (MOLT-4 leukemia): 693 nM | GI50 (NCI-H226 lung): 79.6 nM | TGI (NCI-H226 lung): 635 nM | GI50 (NCI-H460 lung): 163 nM | TGI (NCI-H460 lung): 541 nM | GI50 (NCI-H522 lung): 59.2 nM | TGI (NCI-H522 lung): 157 nM | GI50 (NCI/ADR-RES ovarian): 5580 nM | TGI (NCI/ADR-RES ovarian): 18400 nM | GI50 (OVCAR-3 ovarian): 167 nM | TGI (OVCAR-3 ovarian): 954 nM | GI50 (OVCAR-4 ovarian): 145 nM | TGI (OVCAR-4 ovarian): 982 nM | GI50 (OVCAR-5 ovarian): 236 nM | TGI (OVCAR-5 ovarian): 1310 nM | GI50 (OVCAR-8 ovarian): 169 nM | TGI (OVCAR-8 ovarian): 627 nM | GI50 (PC-3 prostate): 272 nM | TGI (PC-3 prostate): 1790 nM | GI50 (RPMI-8226 leukemia): 254 nM | TGI (RPMI-8226 leukemia): 1070 nM | GI50 (RXF 393 renal): 110 nM | TGI (RXF 393 renal): 333 nM | GI50 (SF-268 CNS): 109 nM | TGI (SF-268 CNS): 554 nM | GI50 (SF-295 CNS): 413 nM | TGI (SF-295 CNS): 1390 nM | GI50 (SF-539 CNS): 32 nM | TGI (SF-539 CNS): 172 nM | GI50 (SK-MEL-2 melanoma): 115 nM | TGI (SK-MEL-2 melanoma): 339 nM | GI50 (SK-MEL-28 melanoma): 278 nM | TGI (SK-MEL-28 melanoma): 1100 nM | GI50 (SK-MEL-5 melanoma): 681 nM | TGI (SK-MEL-5 melanoma): 1350 nM | GI50 (SK-OV-3 ovarian): 622 nM | TGI (SK-OV-3 ovarian): 2150 nM | GI50 (SN12C renal): 45.2 nM | TGI (SN12C renal): 605 nM | GI50 (SNB-19 CNS): 203 nM | TGI (SNB-19 CNS): 1240 nM | GI50 (SNB-75 CNS): 20.6 nM | TGI (SNB-75 CNS): 108 nM | GI50 (SR leukemia): 34 nM | TGI (SR leukemia): 534 nM | GI50 (SW-620 colon): 81.3 nM | TGI (SW-620 colon): 281 nM | GI50 (T-47D breast): 582 nM | TGI (T-47D breast): 1590 nM | GI50 (TK-10 renal): 343 nM | TGI (TK-10 renal): 1180 nM | GI50 (U251 CNS): 243 nM | TGI (U251 CNS): 805 nM | GI50 (UACC-257 melanoma): 390 nM | TGI (UACC-257 melanoma): 1250 nM | GI50 (UACC-62 melanoma): 284 nM | TGI (UACC-62 melanoma): 1100 nM | GI50 (UO-31 renal): 917 nM | TGI (UO-31 renal): 1930 nM
